According to patent publication US20040105857A1, “Methods and compositions for enhancing angiogenesis” (priority 2003, published 2004):

What was measured:
[1] = test system: chick chorioallantoic membrane (CAM); test: Angiogenesis assay in the chick chorioallantoic membrane (CAM) model, vessel branch point count; format: in vivo; details: for induction of angiogenic response (vessel branch points): within a defined concentration range
Experimental: FIG. 1 depicts induction of angiogenesis by soluble L1-fusion protein containing the fourth, fifth, and sixth Ig-like domains of L1 (Ig 4-6). a. GST fusion proteins were made covering the entire extra-cellular domain of L1 and consisted of immunoglobulin like domains 1 through 3 (Ig1 3), immunoglobulin like domains 4 through 6 (Ig4-6), and FN type III like domains 1-5 (FN1 5). b. The L1-fusion proteins (Ig 1-3, Ig 4-6 or FN1-5) were tested for their ability to induce an angiogenic response in the chick chorioallantoic membrane (CAM) model. Filter discs each received 0.5 mg of Ig4-6 fusion protein ([…]) or equimolar amounts of the Ig 1-3, or FN1-5 fusion proteins. Negative or positive control groups received filter discs saturated with media alone or with bFGF respectively. Angiogenesis was quantified by counting the number of vessel branch points within the area of membrane immediately beneath the disc. The number of vessel branch points counted in the control group receiving media alone has been subtracted. Treatment groups consisted of a minimum of six embryos and experiments were performed on three separate occasions. c. […] Results obtained using bFGF or media alone are shown for comparison. Note that fine and highly branched angiogenic vessels can be distinguished from large preexisting vessels. Dotted lines delineate the area of the filter disc placed on the membrane. Excised membrane beneath and adjacent to the filter discs were photographed using an Olympus SZH10 Research Stereo microscope at 15×.
FIG. 2 depicts induction of angiogenesis by a L1-RGD peptide and by a function blocking antibody to β1 integrins. a. The L1 peptide PSITWRGDGRDLQEL or the mutant L1 peptide PSITWRADGRDLQEL were tested for their ability to induce an angiogenic response in the chick CAM model. b. Function blocking antibodies to chick avβ3 (LM609) or to chick β1-intgrins (CSAT) were also tested. […] Angiogenesis was quantified by counting the number of vessel branch points within the area of membrane immediately beneath the disc. The number of vessel branch points counted in the control group receiving media alone has been subtracted. c. […]
FIG. 3 depicts induction of angiogenesis by L1 cleavage products. a. […] Untreated and digested L1 (trypsin free) was then analyzed by SDS polyacrylamide gel electrophoresis (5-15% gradient). b. Sites of trypsin cleavage were determined by amino terminal sequencing and are shown schematically. c. […] Angiogenesis was quantified by counting the number of vessel branch points within the area of membrane immediately beneath the disc.
Angiogenesis assay. Angiogenesis was assessed using the chick chorioallantoic membrane (CAM) model which has been extensively described^54. […]

integrin = test: Integrin-binding activity of mutant L1 peptide (data not shown)
[2] = test system: HDMEC or ECV304 avb3(−) cell adhesion to fibronectin; test: Cell adhesion to fibronectin (data not shown); format: cell-based; set-up: effect on cell adhesion to fibronectin: dose or concentration left out as unconfirmed
Experimental: The extent to which the L1 polypeptide or L1-RGD peptide alters adhesivity between endothelial cells, or endothelial cells and the subendothelial matrix remains to be determined. However, at a high molarity (250 uM) the L1-RGD peptide abrogated 30-40% of HDMEC or ECV304 avb3(−) cell adhesion to fibronectin (data not shown). […] This would certainly be consistent with the fact that both αvβ3 and αvβ1 can promote cell adhesion or spreading on fibronectin^37-38.

[3] = biological target: T1, αvβ1 expressed by endothelial cells (Homo sapiens, UniProt P05556+P06756); details: reference 18; cited from earlier work
T1 construct: αvβ1 expressed by endothelial cells; endogenous in cells
T1 sequence (P06756 31-889 limits assumed): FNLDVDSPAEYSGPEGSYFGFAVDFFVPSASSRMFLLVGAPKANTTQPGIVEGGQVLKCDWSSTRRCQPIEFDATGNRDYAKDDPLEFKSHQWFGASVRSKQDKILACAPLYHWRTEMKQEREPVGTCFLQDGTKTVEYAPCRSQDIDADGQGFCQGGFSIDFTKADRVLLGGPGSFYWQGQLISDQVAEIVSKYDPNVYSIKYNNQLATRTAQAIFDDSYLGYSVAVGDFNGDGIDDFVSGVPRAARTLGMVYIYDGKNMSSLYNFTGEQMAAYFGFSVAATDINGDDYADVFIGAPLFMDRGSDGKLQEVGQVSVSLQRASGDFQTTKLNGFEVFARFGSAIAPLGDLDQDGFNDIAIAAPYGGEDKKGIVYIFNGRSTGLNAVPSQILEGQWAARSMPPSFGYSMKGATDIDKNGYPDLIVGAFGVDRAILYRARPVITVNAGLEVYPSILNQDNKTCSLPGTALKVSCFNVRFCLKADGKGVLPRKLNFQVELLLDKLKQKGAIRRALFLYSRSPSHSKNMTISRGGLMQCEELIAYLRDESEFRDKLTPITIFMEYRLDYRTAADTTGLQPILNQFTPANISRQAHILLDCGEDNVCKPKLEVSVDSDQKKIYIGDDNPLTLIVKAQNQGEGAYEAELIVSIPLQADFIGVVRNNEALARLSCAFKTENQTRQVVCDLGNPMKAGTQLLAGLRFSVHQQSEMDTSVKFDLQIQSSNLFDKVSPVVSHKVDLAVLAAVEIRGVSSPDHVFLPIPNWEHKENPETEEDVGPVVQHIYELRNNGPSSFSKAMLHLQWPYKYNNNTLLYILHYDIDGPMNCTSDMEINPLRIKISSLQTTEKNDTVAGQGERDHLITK
T1 sequence (P06756 891-1048 limits assumed): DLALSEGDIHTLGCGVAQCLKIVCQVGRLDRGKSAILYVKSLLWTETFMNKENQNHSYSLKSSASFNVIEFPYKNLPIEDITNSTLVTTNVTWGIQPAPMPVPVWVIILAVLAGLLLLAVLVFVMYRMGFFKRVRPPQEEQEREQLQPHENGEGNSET
T1 sequence (P05556 21-798): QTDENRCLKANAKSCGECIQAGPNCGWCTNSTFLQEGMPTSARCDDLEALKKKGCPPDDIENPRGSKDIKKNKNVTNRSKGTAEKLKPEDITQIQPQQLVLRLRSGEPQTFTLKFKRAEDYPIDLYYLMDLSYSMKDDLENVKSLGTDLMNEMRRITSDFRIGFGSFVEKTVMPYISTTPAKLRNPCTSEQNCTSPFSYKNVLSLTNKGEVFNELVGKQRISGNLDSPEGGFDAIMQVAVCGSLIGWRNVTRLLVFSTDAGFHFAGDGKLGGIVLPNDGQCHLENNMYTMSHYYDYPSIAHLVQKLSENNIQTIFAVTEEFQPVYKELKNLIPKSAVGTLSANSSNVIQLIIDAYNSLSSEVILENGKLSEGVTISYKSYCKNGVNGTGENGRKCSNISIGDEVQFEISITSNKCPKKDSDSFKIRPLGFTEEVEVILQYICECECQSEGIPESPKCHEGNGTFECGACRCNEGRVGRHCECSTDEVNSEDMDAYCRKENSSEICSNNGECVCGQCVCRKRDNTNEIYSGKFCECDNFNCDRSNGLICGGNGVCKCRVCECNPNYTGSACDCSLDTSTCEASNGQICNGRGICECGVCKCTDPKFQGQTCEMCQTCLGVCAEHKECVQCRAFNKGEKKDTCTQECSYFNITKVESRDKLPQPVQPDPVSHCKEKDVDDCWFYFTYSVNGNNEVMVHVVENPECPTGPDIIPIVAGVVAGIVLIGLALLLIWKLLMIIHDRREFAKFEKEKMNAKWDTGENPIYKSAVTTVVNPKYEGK

Row | Sequence | angiogenic activity compared with an equivalent concentration of the wildtype peptide ([1]; L1 peptides, 0.01-5 mg/disc) | induction of angiogenic response (vessel branch points) ([1]; L1 peptides, 0.01-5 mg/disc) | integrin-binding activity (integrin) | cell adhesion to fibronectin abrogated ([2]; 250 uM peptide, HDMEC or ECV304 avb3(−) cells) | effect on cell adhesion to fibronectin ([2]; lower proangiogenic concentrations) | angiogenic response at high concentration ([1]; high concentration of peptide or antibody) | recognition by αvβ1 [3]
1 | PSITWRADGRDLQEL [15-mer L1 peptide containing the mutation RGD to RAD; control peptide] | significantly less proangiogenic | some angiogenic activity | retained some integrin-binding activity |  |  |  | 
2 | PSITWRGDGRDLQEL [L1-RGD peptide] |  | proangiogenic |  | 30-40% | did not overtly prevent adhesion | not effective | recognized by αvβ1
